# System: at least one muscarinic receptor, M1, M2, M3, M4
# Assay: Muscarinic modulation activity (Table 3)
# Type: cell-based
# Design: key: +++: exhibited muscarinic modulation activity for at least one muscarinic receptor, M1, M2, M3, M4, at a concentration of less than 5 μM; ++: exhibited muscarinic modulation activity for at least one muscarinic receptor, M1, M2, M3, M4, at a concentration of between 30 μM and 5 μM; +: exhibited muscarinic modulation activity for at least one muscarinic receptor, M1, M2, M3, M4, at a concentration of greater than 30 μM; −: were not assayed or did not exhibit muscarinic modulation activity for at least one muscarinic receptor, M1, M2, M3, M4, at the concentration at which the assay was performed
# Settings: concentration at which modulation of at least one muscarinic receptor, M1, M2, M3, M4, was exhibited; CHO cells
# Protocol: CHO cells expressing muscarinic receptors (M1 to M5) are grown as monolayers in tissue culture flasks at 37° C. in a humidified atmosphere containing 5% CO2 and passaged every 3-5 days. The growth media is Dulbecco's modified eagles medium (DMEM, Gibco Cat#12430-054), containing 25 mM Hepes and supplemented with Fetal Bovine Serum (Hyclone, cat#SH30071.03), 0.1 mM of MEM non-essential amino acids (GIBCO, Cat#11140-050), 1 mM MEM Sodium Pyruvate (GIBCO Cat#11360-070) and 100 units/ml of Penicillin G and 100 μg/ml of Streptomycin (GIBCO Cat#15140-122). The recombinant muscarinic receptor cell lines are grown under antibiotic pressure with media containing 25 μg/ml zeocin and 500 μg/ml G418 (M1-CHO), 4 μg/ml puromycin, 50 μg/ml zeocin and 2.5 μg/ml blasticidin (M2 and M4-CHO) or 50 μg/ml zeocin and 4 μg/ml puromycin (M3 and M5-CHO).
# Cells are harvested at 80-90% confluence using Versene (GIBCO Cat#15040-066), collected by centrifugation and seeded 18-24 hrs prior to running the calcium assay at a density of 5,000-10,000 cells/well in […], clear-bottomed 384-well plates (BD Biocoat, poly-D-lysine, Cat#356663). The day of the experiment, the cells are washed with a plate washer (Bioteck Instruments, ELX 405) using bath1 buffer (140-mM NaCl, 4.5-mM KCl, 2-mM CaCl2, 1-mM MgCl2, 10-mM Hepes-Na, 10-mM Glucose, pH 7.4, with NaOH) containing 1 mM Probenecid. Next, the calcium dye Fluo-3 (25 μl/well of Fluo-3 AM at 4 μM, Molecular Probes F-1241, in Bath 1 buffer containing 1 mM Probenecid) is added to the 25 μl of Bath 1 remaining in each well after the plate wash and the dye is loaded at 37° C. in the tissue culture incubator for 60-90 min. The fluorescent dye is removed using the plate washer with Bath 1 containing 1 mM Probenecid, leaving 25 μl/well of this solution after the wash. Alternatively, cells can be loaded with the calcium indicator from Molecular Devices (Calcium 3 Assay Reagents, Cat #R7181) adding 5 μl of a 5× solution dye in Bath 1 containing 1 mM Probenecid (10 ml per dye flask cat#R7182 to generate a solution […]) to 20 μl of the same buffer. After loading for 60 min. the experiment can be run without having to remove the dye.
# Compounds are prepared at a 2× fold concentration in a 96-well plate (round bottom, Costar Corning cat#3656), by reconstituting the pre-spotted compounds in bath 1 containing 1 mM probenecid. The final concentration DMSO is 0.5%, and the amount of DMSO is normalized across the assay plate. To determine an agonist action of the compounds on muscarinic receptors, the reconstituted compounds are added (25 μl compound/well) to the cell assay plate (containing 25 μl/well) using the multi-channel robotic system of the FLIPR 3 Instrument (Molecular Devices, Sunnyvale, Calif.). To determine a functional inhibitory action of the compounds on muscarinic receptors, the reconstituted compounds are added (25 μl compound/well) to the assay plate and pre-incubated for 15 min prior to adding 25 μl of Carbachol at 3× the EC80 for each muscarinic subtype. Alternatively, the compounds can be co-applied simultaneously with the agonist. In both assay modes, the fluorescence is recorded for 60 sec (excitation wavelength is […] and emission wavelength 540 nm) using the FLIPR 3 instrument.
# The potency, efficacy and selectivity of the muscarinic compounds were evaluated by screening the compound activity across the whole family (M1 to M5 cells).
# CHO cells expressing muscarinic receptors (M1 to M5) and containing a gene reporter system β-Lactamase) with transcriptional control mediated by calcium release (NFAT activation). See Zlokarnik, G; Negulescu, P. A.; Knapp, T. E.; Mere, L; Burres, N; Feng, L; Whitney, M; Roemer, K; Tsien, R. Y. Quantitation of transcription and clonal selection of single living cells with β-lactamase as reporter. Science, 1998 Jan. 2, 279(5347):84-8. The cells are grown as monolayers in tissue culture flasks at 37° C. in a humidified atmosphere containing 5% CO2 and passaged every 3-5 days. […]
row,Compound,ACTIVITY (muscarinic modulation activity)
1,"N#Cc1cccnc1N1CCN(C2C3CC4CC(C3)CC2C4)CC1 (stereo not drawn) [Compound 2, 2-[4-(2-adamantyl)piperazin-1-yl]nicotinonitrile]","++ (exhibited muscarinic modulation activity for at least one muscarinic receptor, M1, M2, M3, M4, at a concentration of between 30 μM and 5 μM)"
2,"CCOC(=O)N1C2CCC1CC(N1CCN(c3ncc(CC)cn3)CC1)C2 (stereo not drawn) [Compound 67, 3-[4-(5-ethylpyrimidin-2-yl)piperazin-1-yl]-8-azabicyclo[3.2.1]octane-8-carboxylic acid ethyl ester]","+++ (exhibited muscarinic modulation activity for at least one muscarinic receptor, M1, M2, M3, M4, at a concentration of less than 5 μM)"
3,"Clc1cncc(Cl)c1N1CCN(CC2CC3C=CC2C3)CC1 (stereo not drawn) [Compound 26, 1-(5-bicyclo[2.2.1]hept-2-enylmethyl)-4-(3,5-dichloro-4-pyridyl)-piperazine]",−
4,"CCOC(=O)N1C2CCC1CC(N1CCN(c3ccc(C(C)=O)cn3)CC1)C2 (stereo not drawn) [Compound 51, 3-[4-(5-acetyl-2-pyridyl)piperazin-1-yl]-8-azabicyclo[3.2.1]octane-8-carboxylic acid ethyl ester]","+++ (exhibited muscarinic modulation activity for at least one muscarinic receptor, M1, M2, M3, M4, at a concentration of less than 5 μM)"
5,"N#Cc1cccnc1N1CCN(C2CC3CCC2C3)CC1 (stereo not drawn) [Compound 32, 2-(4-norbornan-2-ylpiperazin-1-yl)nicotinonitrile]","+ (exhibited muscarinic modulation activity for at least one muscarinic receptor, M1, M2, M3, M4, at a concentration of greater than 30 μM)"
6,"CCOC(=O)N1C2CCC1CC(N1CCN(c3ccncc3)CC1)C2 (stereo not drawn) [Compound 25, 3-[4-(4-pyridyl)piperazin-1-yl]-8-azabicyclo[3.2.1]octane-8-carboxylic acid ethyl ester]","+++ (exhibited muscarinic modulation activity for at least one muscarinic receptor, M1, M2, M3, M4, at a concentration of less than 5 μM)"
7,"CCOC(=O)N1C2CCC1CC(N1CCN(c3cc(C#N)ccn3)CC1)C2 (stereo not drawn) [Compound 56, 3-[4-(4-cyano-2-pyridyl)piperazin-1-yl]-8-azabicyclo[3.2.1]octane-8-carboxylic acid ethyl ester]","+++ (exhibited muscarinic modulation activity for at least one muscarinic receptor, M1, M2, M3, M4, at a concentration of less than 5 μM)"
8,"C1=CC2CC1CC2CN1CCN(c2ccncc2)CC1 (stereo not drawn) [Compound 41, 1-(5-bicyclo[2.2.1]hept-2-enylmethyl)-4-(4-pyridyl)piperazine]","+++ (exhibited muscarinic modulation activity for at least one muscarinic receptor, M1, M2, M3, M4, at a concentration of less than 5 μM)"
9,"N#Cc1ccc(N2CCN(CC3CC4C=CC3C4)CC2)nc1 (stereo not drawn) [Compound 34, 6-[4-(5-bicyclo[2.2.1]hept-2-enylmethyl)piperazin-1-yl]nicotinonitrile]","+++ (exhibited muscarinic modulation activity for at least one muscarinic receptor, M1, M2, M3, M4, at a concentration of less than 5 μM)"
10,"NC(=O)c1ccc(N2CCN(CC3CC4CCC3C4)CC2)nc1 (stereo not drawn) [Compound 14, 6-[4-(norbornan-2-ylmethyl)piperazin-1-yl]nicotinamide]",−
11,"FC(F)(F)c1cnc(N2CCN(CC3CC4C=CC3C4)CC2)c(Cl)c1 (stereo not drawn) [Compound 74, 1-(5-bicyclo[2.2.1]hept-2-enylmethyl)-4-[3-chloro-5-(trifluoromethyl)-2-pyridyl]-piperazine]",−
12,"N#Cc1ccc(C(F)(F)F)nc1N1CCN(CC2CC3C=CC2C3)CC1 (stereo not drawn) [Compound 53, 2-[4-(5-bicyclo[2.2.1]hept-2-enylmethyl)piperazin-1-yl]-6-(trifluoromethyl)nicotinonitrile]","+ (exhibited muscarinic modulation activity for at least one muscarinic receptor, M1, M2, M3, M4, at a concentration of greater than 30 μM)"
13,"N#Cc1ccc(C(F)(F)F)nc1N1CCN(CC2CC3CCC2C3)CC1 (stereo not drawn) [Compound 8, 2-[4-(norbornan-2-ylmethyl)piperazin-1-yl]-6-(trifluoromethyl)nicotinonitrile]",−
14,"c1cc(N2CCN(C3CCC4CCC3C4)CC2)ccn1 (stereo not drawn) [Compound 61, 1-(2-bicyclo[3.2.1]octyl)-4-(4-pyridyl)piperazine]",−
15,"CCOC(=O)N1C2CCC1CC(CN1CCN(c3nccnc3C#N)CC1)C2 (stereo not drawn) [Compound 38, 3-[[4-(3-cyanopyrazin-2-yl)piperazin-1-yl]methyl]-8-azabicyclo[3.2.1]octane-8-carboxylic acid ethyl ester]","+++ (exhibited muscarinic modulation activity for at least one muscarinic receptor, M1, M2, M3, M4, at a concentration of less than 5 μM)"
16,"CCOC(=O)N1C2CCC1CC(N1CCN(c3nc(Cl)cc(C(F)(F)F)c3C#N)CC1)C2 (stereo not drawn) [Compound 58, 3-[4-[6-chloro-3-cyano-4-(trifluoromethyl)-2-pyridyl]piperazin-1-yl]-8-azabicyclo[3.2.1]octane-8-carboxylic acid ethyl ester]",−
17,"Cc1cccnc1N1CCN(C2CC3CCC2C3)CC1 (stereo not drawn) [Compound 60, 1-(3-methyl-2-pyridyl)-4-norbornan-2-yl-piperazine]","+ (exhibited muscarinic modulation activity for at least one muscarinic receptor, M1, M2, M3, M4, at a concentration of greater than 30 μM)"
18,"CCOC(=O)N1C2CCC1CC(N1CCN(c3ccc(C(N)=O)cn3)CC1)C2 (stereo not drawn) [Compound 36, 3-[4-(5-carbamoyl-2-pyridyl)piperazin-1-yl]-8-azabicyclo[3.2.1]octane-8-carboxylic acid ethyl ester]","+++ (exhibited muscarinic modulation activity for at least one muscarinic receptor, M1, M2, M3, M4, at a concentration of less than 5 μM)"
19,"c1cnc(N2CCN(C3CC4CCC3C4)CC2)cn1 (stereo not drawn) [Compound 44, 2-(4-norbornan-2-ylpiperazin-1-yl)pyrazine]","++ (exhibited muscarinic modulation activity for at least one muscarinic receptor, M1, M2, M3, M4, at a concentration of between 30 μM and 5 μM)"
20,"CCOC(=O)N1C2CCC1CC(N1CCN(c3ccncc3S(N)(=O)=O)CC1)C2 (stereo not drawn) [Compound 49, 3-[4-(3-sulfamoyl-4-pyridyl)piperazin-1-yl]-8-azabicyclo[3.2.1]octane-8-carboxylic acid ethyl ester]","+++ (exhibited muscarinic modulation activity for at least one muscarinic receptor, M1, M2, M3, M4, at a concentration of less than 5 μM)"
21,"c1cc(N2CCN(C3C4CC5CC(C4)CC3C5)CC2)ccn1 (stereo not drawn) [Compound 75, 1-(2-adamantyl)-4-(4-pyridyl)piperazine]","++ (exhibited muscarinic modulation activity for at least one muscarinic receptor, M1, M2, M3, M4, at a concentration of between 30 μM and 5 μM)"
